Key:
Format in all cases: cell-based
[1] = biological target: T1, CD64/CD14 (Uchm1) (Homo sapiens, UniProt P08571); assay: FRET co-assembly of CD64 with CD14 on monocytes; details: LPS 4 nM, ceramide 40 nM, LTA 1 μg/ml, HSP70 7 nM; mean ± SD of 10 experiments; >5% = positive transfer
T1 construct: endogenous in cells; host or cells: human monocytes in whole blood
T1 sequence (P08571 20-345 limits assumed): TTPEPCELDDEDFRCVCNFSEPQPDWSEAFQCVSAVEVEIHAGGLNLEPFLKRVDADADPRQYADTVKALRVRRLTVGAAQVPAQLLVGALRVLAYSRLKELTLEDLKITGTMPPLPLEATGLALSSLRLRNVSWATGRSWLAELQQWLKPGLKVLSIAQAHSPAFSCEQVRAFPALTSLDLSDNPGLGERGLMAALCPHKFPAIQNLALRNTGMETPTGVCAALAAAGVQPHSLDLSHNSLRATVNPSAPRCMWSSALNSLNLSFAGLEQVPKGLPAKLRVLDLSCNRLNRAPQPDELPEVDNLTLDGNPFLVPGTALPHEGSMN
Experimental: (§1) Aliquots […] of whole blood were incubated with the following stimulatory compounds at 37° C. for 15 minutes: LPS of Salmonella minnesota (0.1-10 nM, Mw 10 kDa), ceramide (primarily stearic acid and nervonic acid) and sulfogalactosyl ceramide (SG-cer, […]), both of which tested LPS free in the LAL assay (Cer, 1 nM-5.5 mM), lysophosphatidyl choline (lyso-PC, 10 mM), phorbol-12-myristate-13-acetate (PMA, 1 mM), N-formyl-L-methionyl-L-leucyl-L-phenyl alamine (fMLP, 1 mM), PE, PC, PI and PS liposomes (10 mm) which had been prepared as described above. All reagents were obtained from Sigma. In addition, the cells were stimulated with HPS70 (7 nM), dHSP70 (7 nM) and SG-cer+dHSP70 (40 nM+7 nM). After incubation, the cells were washed with cold PBS containing 0.1% of NaN3. The synthetic LPS antagonist lipid IVa (“compound-406”, 1-400 ng/ml) and lipid A derived from E. coli (1-100 ng/ml) were made available by courtesy of Dr. S. Kusumoto. The cells were pre-incubated with the LPS antagonist at 37° C. for 15 minutes and then stimulated with LPS at the same temperature (without washing).
(§2) Whole blood cells which had been stimulated or washed ex vivo […] were incubated on ice for 15 minutes with saturation concentrations of monoclonal fluorochrom-conjugated or biotinylated antibodies. The monoclonal antibodies CD11a (clone 25.3.1), CD16a (clone 3G8). […]

[2] = biological target: T2, CD32/CD14 (Uchm1) (Homo sapiens, UniProt P08571); assay: FRET co-assembly of CD32 with CD14 on monocytes; details: LPS 4 nM, ceramide 40 nM, LTA 1 μg/ml, HSP70 7 nM; mean ± SD of 10 experiments; >5% = positive transfer
T2 construct: endogenous in cells; host or cells: human monocytes in whole blood
T2 sequence (P08571 20-345 limits assumed): T1 sequence (P08571 20-345 limits assumed)
Experimental: as §1, §2

[3] = biological target: T3, TLR-4/CD14 (×8) (Homo sapiens, UniProt P08571); assay: FRET co-assembly of TLR-4 with CD14 on monocytes; details: LPS 4 nM, ceramide 40 nM, LTA 1 μg/ml, HSP70 7 nM; mean ± SD of 10 experiments; >5% = positive transfer
T3 construct: endogenous in cells; host or cells: human monocytes in whole blood
T3 sequence (P08571 20-345 limits assumed): T1 sequence (P08571 20-345 limits assumed)
Experimental: as §1, §2

[4] = biological target: T4, CD18(7E4)/CD14 (×8) (Homo sapiens, UniProt P08571); assay: FRET co-assembly of CD18 with CD14 on monocytes; details: LPS 4 nM, ceramide 40 nM, LTA 1 μg/ml, HSP70 7 nM; mean ± SD of 10 experiments; >5% = positive transfer
T4 construct: endogenous in cells; host or cells: human monocytes in whole blood
T4 sequence (P08571 20-345 limits assumed): T1 sequence (P08571 20-345 limits assumed)
Experimental: as §1, §2

[5] = biological target: T5, CD36/CD14 (×8) (Homo sapiens, UniProt P08571); assay: FRET co-assembly of CD36 with CD14 on monocytes; details: LPS 4 nM, ceramide 40 nM, LTA 1 μg/ml, HSP70 7 nM; mean ± SD of 10 experiments; >5% = positive transfer
T5 construct: endogenous in cells; host or cells: human monocytes in whole blood
T5 sequence (P08571 20-345 limits assumed): T1 sequence (P08571 20-345 limits assumed)
Experimental: as §1, §2

[6] = biological target: T6, CD55/CD14 (Uchm1) (Homo sapiens, UniProt P08571); assay: FRET co-assembly of CD55 with CD14 on monocytes; details: LPS 4 nM, ceramide 40 nM, LTA 1 μg/ml, HSP70 7 nM; mean ± SD of 10 experiments; >5% = positive transfer
T6 construct: endogenous in cells; host or cells: human monocytes in whole blood
T6 sequence (P08571 20-345 limits assumed): T1 sequence (P08571 20-345 limits assumed)
Experimental: as §1, §2

[7] = biological target: T7, CD11b and CD14 (Homo sapiens, UniProt P08571); assay: FRET flow cytometry: co-assembly of CD11b and CD14 on monocytes; details: for co-assembly of CD11b and CD14 (energy transfer between monoclonal antibodies): human monocytes in whole blood, stimulation with the substance alone, 37° C. 15 minutes
T7 construct: endogenous in cells; host or cells: human monocytes in heparinised whole blood (healthy donors and patients)
T7 sequence (P08571 20-345 limits assumed): T1 sequence (P08571 20-345 limits assumed)
Experimental: as §1
(§3) Whole blood cells which had been stimulated or washed ex vivo […] were incubated on ice for 15 minutes with saturation concentrations of monoclonal fluorochrom-conjugated or biotinylated antibodies. The monoclonal antibodies CD11a (clone 25.3.1), CD16a (clone 3G8). CD18 (clone 7E4), CD14 (clone RMO52), CD33 (clone My9-RD1). CD81 (clone Js64) were obtained as R-phyco-erythrine (R-PE) conjugates and CD25 (clone B1.49.9) in biotinylated form from Coulter/Immunotech (Krefeld, Germany). CD11b (clone d12), CD11c (clone S-HCL-3), CD36 (clone CB38), CD47 (clone B6H12), CD81 (clone JS-81) and (Cd55 (clone IA10) in biotinylated form and Streptavidin-R-PE were purchased from Becton/Dickinson/Pharningen (Heidelberg, Germany) CD18 (clone IB4) in biontinylated form and CD40 (clone EA-5) as R-PE conjugate were obtained from Alexis (Grünberg, Germany) and CD14 (clones ×8 and Uchml) and CD3 (clone Cris-7) in biotinylated form and Streptavidin-Cy5 (Sa-Cy5) from Dianova (Hamburg, Germany), CD32 (clone C1KM5) and CD64 (clone 10.1) were obtained as R-PE conjugates from Caltag (Burlingame, U.S.A.) and CD91 (clone 8G1) in biotinylated form from Proen (Heidelberg, Germany). A monoclonal anti-TLRA antibody (clone HTA125) was kindly provided by Dr. Kensuke. Since no energy transfer between the antibodies directed against the CD14/CD11a and CD14/CD11c pairs was detectable either on resting or on stimulated cells, these antibody combinations were not characterised further.
Lysis of erythrocytes and washing were carried out as described (Rothe et al., Thromb. Vasc. Biol. 16 (1996), 1437-1447). After the last washing step, the samples were divided and part of each sample incubated with a saturating amount of SA-Cy5 on ice for 15 minutes and washed before measuring.
For energy transfer experiments, […] aliquots of whole blood were treated with cholesterol/methyl cyclodextrine (C/C) (100 mg/ml/4.6 mg/ml) or 2-hydroxypropyl-β-cyclodextrine (0.15 mg/ml) at 37° C. for 30 minutes and then stimulated further with LPS (4 nM) or ceramide (40 nM) as described above. The energy transfer between CD14 and CD11b was measured.
A “FACSCalibur” flow cytometer (Becton Dickinson) equipped with an air-cooled 15 mW argon laser (excitation wavelength 488 nm), a diode laser (excitation wavelength […]) and standard filters [channel 1 (FITC): 530/30 nm band pass filter; channel 2 (R-PE being used as donor dye); 585/47 nm band pass filter; channel 3 (PerCP): pass having a length of >670 nm; and channel 4 (Cy5being used as recipient dye): 661/16 nm bad pass filter] was used. The Cellquest software (Becton Dickinson) was used for the measurements. […] Measurement was conducted without compensation. 50,000 leukocytes were required in the “list” modus, forward scattering (FSC) being used as a trigger signal. […]

[8] = biological target: T8, CD81/CD14 (×8) (Homo sapiens, UniProt P08571); assay: FRET co-assembly of CD81 with CD14 on monocytes; details: LPS 4 nM, ceramide 40 nM, LTA 1 μg/ml, HSP70 7 nM, mean ± SD of 10 experiments; for energy transfer CD81 (JS-81)/CD14 (×8): CD81 clone JS-81; for energy transfer CD81 (Js64)/CD14 (×8): CD81 clone Js64
T8 construct: endogenous in cells; host or cells: human monocytes in whole blood (donors; also sepsis and CAD patients)
T8 sequence (P08571 20-345 limits assumed): T1 sequence (P08571 20-345 limits assumed)
Experimental: as §1
as §3, with “further. […]” for “further.”

[9] = biological target: T9, CD47/CD14 (Uchm1) (Homo sapiens, UniProt P08571); assay: FRET co-assembly of CD47 with CD14 on monocytes; details: LPS 4 nM, ceramide 40 nM, LTA 1 μg/ml; mean ± SD of 10 experiments; >5% = positive transfer
T9 construct: endogenous in cells; host or cells: human monocytes in whole blood
T9 sequence (P08571 20-345 limits assumed): T1 sequence (P08571 20-345 limits assumed)
Experimental: as §1, §2

[10] = biological target: T10, CD16/CD14 (Uchm1) (Homo sapiens, UniProt P08571); assay: FRET co-assembly of CD16 with CD14 on monocytes; details: LPS 4 nM, ceramide 40 nM, LTA 1 μg/ml; mean ± SD of 10 experiments; >5% = positive transfer
T10 construct: endogenous in cells; host or cells: human monocytes in whole blood
T10 sequence (P08571 20-345 limits assumed): T1 sequence (P08571 20-345 limits assumed)
Experimental: as §1, §2

Substance	energy transfer CD64/CD14 (Uchm1) [1]	energy transfer CD32/CD14 (Uchm1) [2]	energy transfer TLR-4/CD14 (×8) [3]	energy transfer CD18(7E4)/CD14 (×8) [4]	energy transfer CD36/CD14 (×8) [5]	energy transfer CD55/CD14 (Uchm1) [6]	co-assembly of CD11b and CD14 (energy transfer between monoclonal antibodies) [7]	energy transfer CD81 (JS-81)/CD14 (×8) [8]	energy transfer CD81 (Js64)/CD14 (×8) [8]	energy transfer CD47/CD14 (Uchm1) [9]	EC50 ([7]; human monocytes, FIG. 1b, read-out: EC50cer, ceramide-induced energy transfer between antibodies against CD11b and CD14 (clone ×8))	energy transfer CD16/CD14 (Uchm1) [10]
HSP70: Heat shock protein 70 obtained from Stressgen	10.1 ± 1.5%	5.3 ± 2.1%	5.4 ± 0.6%	6.0 ± 2.1 %	8.2 ± 1.8 %	6.0 ± 0.5%	induces clustering of CD11b and CD14	1.0 ± 0.1%	3.8 ± 2.5%	–	–	–
ceramide	10.4 ± 1.3%	11.6 ± 3.4%	3.2 ± 2.5%	5.4 ± 0.8 %	10.1 ± 1.0 %	9.7 ± 1.5%	induces the transfer of CD14 into a receptor cluster	3.1 ± 2.4%	2.8 ± 0.7%	11.9 ± 3.1%	~0.1 nM	3.2 ± 5.6%

Source: patent US20030165919A1, “Method for the analysis of exogenic and endogenic cell activiation based on measuring the aggregation of receptors” (priority 2000, published 2003)
